Patent publication US5215520A, “Method for delivering an active substance topically or percutaneously” (Centre Internationale de Recherches Dermatologiques …, priority 1991, dated 1993)

Columns and labels:
[1] = Pharmacokinetic profile: blood and urine levels after single intravenous injection; format: in vivo, hairless female rats
Description: Prior to the in vivo experiments, a study was carried out to determine whether the levels of peptide in urine were significant. To this end, following a single intravenous injection of Thr-Lys-Pro, its levels in blood and urine were measured. This was carried out by an injection of 0.5 cm^3 of an aqueous solution containing 2 nmol/cm^3 of non-radiolabelled peptide and 5 μCi/cm^3 of radiolabelled peptide via the tail vein of five hairless female rats (198±12 g). The rats had been anaesthetised by an intraperitoneal injection of pentobarbital sodium (40 mg/kg). The rats were left in metabolic cages and blood samples were taken at 10, 15, 30 minutes and 1, 2, 3 and 24 hours following the peptide injection. Blood was removed from the retro-orbital sinus of the eye socket by capillary tube. The samples were weighed into a crucible (ashless paper) and allowed to dry overnight. The blood was then oxidized using a tri-carb oxidizer (model 306 sold by Packard Instrument Co. Inc.) and measured for radioactivity. Urine was collected from the cage after 24 hours and also measured for radioactivity.

[2] = rat, in vivo
Description: In these experiments, the levels of Thr-Lys-Pro peptide in urine following application of the peptide to the skin were measured.
Electrodes (105, 106) (Ag/AgC1) were tightly fitted to the stoppers (103, 104) and became enclosed within the chambers (101 and 102) when the chambers were closed by replacing the stoppers. The distance between the bottom of the electrode after the stopper has been replaced and the bottom of the chamber is 0.3 cm. The skin surface contact area was 3.80 cm^2 and the axes of the chambers were 42 mm apart. The electrodes were connected to a source of electric current (E). To enable the various experiments to be performed, chambers (101 and 102) were fixed to the skin (S) using a cyanoacrylate glue. […]
After 3 hours the electrodes were removed and the skin washed carefully with deionized water, then dried and stripped 5 times with adhesive tape (3M Co., St. Paul, Minn., U.S.A) and the strips discarded. […] The urine passed in the 24-hour period was collected and counted for radioactivity.
In the method of the invention, the skin was first subjected to 3 hours of electric current as in conventional iontophoresis, except that chamber 101 contained the gel of example 1 without peptide. […] The rats were then left as described previously in their metabolic cages for 24 hours and urine collected and measured for radioactivity. […]

Thr-Lys-Pro
quantity of peptide present in urine ([1]; 24 hours after the intravenous injection, radioactivity): 63.6±8 % of the injected dose
quantity of peptide in the blood ([1]; single intravenous injection, blood sampled 10 minutes to 24 hours): not detectable
systemic absorption of peptide (total quantity in urine) vs passive method without current [2]: greater systemic absorption of peptides than the passive method without application of current
